One may read the EC50 as the concentration that produces a half-maximal response.

The target of the assay is recombinant IL4I1 (Homo sapiens (Human), UniProt Q96RQ9). Kind of assay: IL4I1 Enzymatic Assay (Amplex Red/HRP coupled fluorescence detection of H2O2). Particulars: 240 min; recombinant IL4I1, four-hour pre-incubation with compound. Format: biochemical. A digest of the protocol: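 Recombinant human IL4I1 (1 nM final) pre-incubated 4 h with compound at ambient temperature in 50 mM Hepes pH 7.0, 0.005% Tween20. Started with 1 mM each Phe/Tyr/Trp plus Amplex Red/HRP; H2O2-derived resorufin fluorescence read after 120 min; EC50 from ten-point 1:3 titration, four-parameter fit.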
Chain of recombinant IL4I1 (Q96RQ9 22-567): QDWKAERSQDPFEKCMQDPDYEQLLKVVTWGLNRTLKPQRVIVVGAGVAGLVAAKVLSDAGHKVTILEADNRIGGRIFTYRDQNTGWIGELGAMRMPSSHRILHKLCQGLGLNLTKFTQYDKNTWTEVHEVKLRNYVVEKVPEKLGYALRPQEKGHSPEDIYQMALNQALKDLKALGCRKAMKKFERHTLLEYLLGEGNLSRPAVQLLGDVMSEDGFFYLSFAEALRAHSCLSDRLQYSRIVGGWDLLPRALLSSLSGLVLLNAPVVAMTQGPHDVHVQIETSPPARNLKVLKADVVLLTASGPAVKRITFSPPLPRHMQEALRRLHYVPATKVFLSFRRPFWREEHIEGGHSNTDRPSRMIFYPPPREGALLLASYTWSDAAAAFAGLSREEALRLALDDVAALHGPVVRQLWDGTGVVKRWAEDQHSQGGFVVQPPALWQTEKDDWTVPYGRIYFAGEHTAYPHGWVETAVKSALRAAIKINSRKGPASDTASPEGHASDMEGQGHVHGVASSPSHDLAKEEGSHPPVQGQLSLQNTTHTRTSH
In the case of `O=c1c(=O)n(C23CC(C2)C3)ccn1Cc1cn(-c2cccnc2)nn1` [Example 428, 1-(bicyclo[1.1.1]pentan-1-yl)-4-((1-(pyridin-3-yl)-1H-1,2,3-triazol-4-yl)methyl)-1,4-dihydropyrazine-2,3-dione], the EC50 turned out to be 21 nM.

Consider `CC1(n2ccn(Cc3cn(-c4cccnc4)nn3)c(=O)c2=O)CC1` [Example 429, 1-(1-methylcyclopropyl)-4-((1-(pyridin-3-yl)-1H-1,2,3-triazol-4-yl)methyl)-1,4-dihydropyrazine-2,3-dione], for which the EC50 amounted to 29 nM. The value for `CC1(n2ccn(Cc3cn(-c4ccccn4)nn3)c(=O)c2=O)CC1` [Example 430, 1-(1-methylcyclopropyl)-4-((1-(pyridin-2-yl)-1H-1,2,3-triazol-4-yl)methyl)-1,4-dihydropyrazine-2,3-dione] was 183 nM; that for `N#CC1(n2ccn(Cc3cn(-c4cccnc4)nn3)c(=O)c2=O)CC1` [Example 431, 1-(2,3-dioxo-4-((1-(pyridin-3-yl)-1H-1,2,3-triazol-4-yl)methyl)-3,4-dihydropyrazin-1(2H)-yl)cyclopropane-1-carbonitrile] was 130 nM; that for `O=C1C(=O)N(C2CCC2)CCN1Cc1noc(-c2ccccn2)c1Br` [Example 432, 1-((4-bromo-5-(pyridin-2-yl)isoxazol-3-yl)methyl)-4-cyclobutylpiperazine-2,3-dione] was 17 nM. Next, `O=C1C(=O)N(c2ccccn2)CCN1Cc1ccc(-c2ccccc2)nn1` [Example 433, 1-((6-phenylpyridazin-3-yl)methyl)-4-(pyridin-2-yl)piperazine-2,3-dione]: 37 nM; `O=C1C(=O)N(C2CC(O)C2)CCN1Cc1ccc(-c2ccccc2F)nn1` (stereo not drawn) [Example 434, 1-((6-(2-fluorophenyl)pyridazin-3-yl)methyl)-4-(3-hydroxycyclobutyl)piperazine-2,3-dione]: 71 nM; `N#Cc1ccccc1-c1nnc(CN2CCN(C34CC(C3)C4)C(=O)C2=O)s1` [Example 436, 2-(5-((4-(bicyclo[1.1.1]pentan-1-yl)-2,3-dioxopiperazin-1-yl)methyl)-1,3,4-thiadiazol-2-yl)benzonitrile]: 20 nM. The value for `O=C1C(=O)N(C23CC(C2)C3)CCN1Cc1cn(-c2ccccc2)nn1` [Example 439, 1-(bicyclo[1.1.1]pentan-1-yl)-4-((1-phenyl-1H-1,2,3-triazol-4-yl)methyl)piperazine-2,3-dione] was 9 nM.

Source of the values: US20240246937A1 (MERCK SHARP & DOHME LLC, priority 2021, published 2024).
